Source: patent publication US12180255B2, “Compositions and methods for derepressing RE1 silencing transcription factor target genes” (Alcamena Stem Cell Therapeutics, LLC, priority 2019, dated 2024)

Columns and labels:
[1] = Mechanical pain threshold after SNI, morphine analgesia; type: in vivo; conditions: single S.C. injection, n=4
Experimental: FIG. 23. […] B. Analgesic effect of single S.C. injection of morphine on MT post-injury (SNI+MOR, n=4). Mean±SEM; F=4.62, *p<0.05 by one-way ANOVA before and after treatment; mean difference and 95% CI=−7.3, −14.5 to −0.135, p<0.05 by Bonferroni's Multiple Comparison test. 20 mg/Kg of MOR (n=4; F=19.03, **p<0.001 by one-way ANOVA).

[2] = Conditioned Place Preference after morphine in SNI mice; type: in vivo; conditions: 4 doses
Description: FIG. 24. Conditioned Place Preference (CPP) after conditioning with saline (control) and 4 doses of morphine (MOR) in SNI mice.

His-CTDSP1 = target: T1, His-CTDSP1 (Homo sapiens, UniProt Q9GZU7); test: Binding affinity of RPP for CTDSP1, Monolith (NanoTemper); conditions: His-CTDSP1 40 nM labelled with RED-tris NTA dye 20 nM
T1 construct: made in house; host or cells: E. coli 10G (Lucigen), pBAD-HisA
T1 sequence (Q9GZU7 with tags, fused parts or gaps): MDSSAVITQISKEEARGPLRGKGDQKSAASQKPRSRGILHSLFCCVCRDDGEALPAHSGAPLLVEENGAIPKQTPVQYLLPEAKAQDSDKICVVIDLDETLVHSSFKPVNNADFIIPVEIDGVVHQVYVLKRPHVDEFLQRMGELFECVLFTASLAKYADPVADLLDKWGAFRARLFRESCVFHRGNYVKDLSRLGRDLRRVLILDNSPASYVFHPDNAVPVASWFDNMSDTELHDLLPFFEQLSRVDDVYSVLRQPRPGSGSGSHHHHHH
Experimental: FIG. 2. Binding affinity of the REST phosphomimetic peptide (RPP) for CTDSP1 was measured using the Monolith (NanoTemper). […] Binding was assessed by fluorescently labelling the His tag on CTDSP1 (40 nM) with RED-tris NTA dye (20 nM) and measuring the change in fluorescents when RPP (up to […]) is bound.
Expression constructs for His-CTDSPL (Table 2; SEQ ID NO: 162) and GST-RPP (Table 4; SEQ ID NO: 164) were constructed and purified as described in Example 2. The His tag on CTDSP1 (40 nM) was labelled with RED-tris NTA dye (20 nM), with a […] dye to CTDSP1 ratio, and unbound dye was removed by gravity-flow size exclusion. Binding affinity of the linear GST-RPP (Table 4; SEQ ID NO: 165) to His-CTDSP1 (Table 2; SEQ ID NO:163) was determined using Monolith (NanoTemper), following manufacturer recommendations. Results of the binding assay are presented in FIG. 2: The RPP (Table 4; SEQ ID NO: 165) was assessed for binding to His-CTDSP1 at several concentrations ranging from low pM up to 0.5 μM.

NBFL cells = test: KV4.3 mRNA in NBFL cells transfected with plasmid expressing RPP; type: cell-based
Experimental: FIG. 8. mRNA levels of KV4.3 in NBFL cells 48 h after CTDSP1 inhibition. Cells were transfected with a plasmid expressing RPP (SEQ ID NO: 1) with GFP (+) or a control peptide with GFP (−). 24 hours after transfection, cells were sorted based on fluorescence intensity. Error bars represent standard deviation, n=2.
Transient Transfections and Cell Culture. NBFL cells were grown as previously described^120. 0.5 M NFBL cells were seeded on a 35 mm dish, incubated at 37° C. overnight, and transfected with 2 μg of REST (SEQ. ID NO: 1)-IRES-GFP cDNA^2 using lipofectamine2000 (Life Technologies), following manufacturer recommendations. After a 48 hour incubation period, cell were sorted by fluorescence activated cell sorting (FACS),
mRNA extraction and quantification. mRNA was extracted, as described in Example 10, from GFP+ and − cells; mRNA levels of KV4.3 were determined using real-time RT-PCR^116. Gene expression was normalized using β-actin (ACTB) as an internal housekeeping control. The β-actin primers used are the same as Example 10. The KV4.3 primers were: forward: […] (SEQ ID NO: 336) and reverse: […] (SEQ ID NO: 337).

CN1CC[C@]23c4c5ccc(O)c4O[C@H]2[C@@H](O)C=C[C@H]3[C@H]1C5 [morphine]
mechanical pain threshold (MT), mean difference before and after treatment [1]: −7.3 | Conditioned Place Preference (CPP) [2]: induced CPP in a dose-dependent manner

SEQ ID NO: 165: RPP-GST fusion protein, MCTEDLEPPEPPLPKENC linked to GST (Table 4)
Kd (His-CTDSP1): ~0.13 nM

TEDLEPPEPPLPKEN [SEQ ID NO: 1, REST phosphomimetic peptide (RPP)]
increase in KV4.3 mRNA (NBFL cells; NBFL cells transfected with RPP): 2 fold | Increase, KV4.3 mRNA (NBFL cells; NBFL, 2 μg (transfected), 48 h): 3x
